As usually defined, the IC50 is the concentration that gives 50% inhibition. A word on the EC50: it is the concentration needed to bring the measured effect to its halfway point.

Experiment [1] has as its system AsPC-1 (K-Ras G12D). The experiment can be described thus: CellTiter-Glo cell viability assay. Type of experiment: cell-based. Particulars: Homo sapiens, ASPC1, 120 h, read-out: AsPC-1 Cell Viability assay data IC50, K-Ras G12D, 5-day treatment. The essentials: (§1)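 Luminescence from CellTiter-Glo serves as the viability read-out after cells are treated with compound for 5 days. Each well's signal is divided by the DMSO average and multiplied by 100, and curves are fitted by four-parameter logistic regression.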

Experiment [2] concerns NCI-H358 (K-Ras G12C). The experiment can be described thus: CellTiter-Glo cell viability assay. Type of experiment: cell-based. Particulars: Homo sapiens, NCI-H358, 120 h, read-out: H358 Cell Viability assay data IC50, K-Ras G12C, 5-day treatment. A digest of the protocol: as §1
On the technique in general: Cellular ATP, detected with luciferase, serves as a proxy for viable cell number.

For experiment [3], the target named is KRAS G12V (Homo sapiens, UniProt P01116+P62937, G12V). The experiment can be described thus: Ras-Raf disruption / FRET / MOA assay (BRAF RBD). Particulars: KRAS G12V FRET data IC50, Ras-Raf disruption, with Cyclophilin A. Type of experiment: biochemical. A digest of the protocol: (§2)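 TR-FRET in 25 mM HEPES pH 7.3, 100 mM NaCl, 5 mM MgCl2, 0.1% BSA, 0.002% Tween20 with 25 μM Cyclophilin A, 12.5 nM His6-Ras-GMPPNP, 50 nM GST-BRAF RBD; compound 10-point 3-fold series from 30 μM. After 3 h at 25 °C, Eu anti-His/APC anti-GST added for 1.5 h; IC50 from ratio decrease versus DMSO.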

For experiment [4], the target named is KRAS G12D (Homo sapiens, UniProt P01116+P62937, G12D). Nature of the experiment: Ras-Raf disruption / FRET / MOA assay (BRAF RBD). Type of experiment: biochemical. Particulars: KRAS G12D FRET data IC50, Ras-Raf disruption, with Cyclophilin A. The essentials: as §2
The target in experiment [5] is NRAS Q61R (Homo sapiens, UniProt P01111+P62937, Q61R). The experiment can be described thus: Ras-Raf disruption / FRET / MOA assay (BRAF RBD). Type of experiment: biochemical. The essentials:
as §2

Experiment [6] addresses KRAS Q61H (Homo sapiens, UniProt P01116+P62937, Q61H). The experiment can be described thus: Ras-Raf disruption / FRET / MOA assay (BRAF RBD). Type of experiment: biochemical. The essentials: as §2
Experiment [7] has as its target NRAS WT (Homo sapiens, UniProt P01111+P62937). Nature of the experiment: Ras-Raf disruption / FRET / MOA assay (BRAF RBD). Type of experiment: biochemical. The essentials: as §2
Experiment [8] deals with KRAS G13C (Homo sapiens, UniProt P01116+P62937, G13C). Nature of the experiment: Ras-Raf disruption / FRET / MOA assay (BRAF RBD). Particulars: KRAS G13C FRET data IC50, Ras-Raf disruption, with Cyclophilin A. Type of experiment: biochemical. The essentials:
as §2

In experiment [9] the target is KRAS WT (Homo sapiens, UniProt P01116+P62937). Nature of the experiment: Ras-Raf disruption / FRET / MOA assay (BRAF RBD). Type of experiment: biochemical. Particulars: KRAS WT FRET data IC50, Ras-Raf disruption, with Cyclophilin A. The essentials: as §2
In experiment [10] the target is KRAS G13D (Homo sapiens, UniProt P01116+P62937, G13D). Nature of the experiment: Ras-Raf disruption / FRET / MOA assay (BRAF RBD). Type of experiment: biochemical. Particulars: KRAS G13D FRET data IC50, Ras-Raf disruption, with Cyclophilin A. The essentials:
as §2

Experiment [11] addresses NRAS G12C (Homo sapiens, UniProt P01111+P62937, G12C). The experiment can be described thus: Ras-Raf disruption / FRET / MOA assay (BRAF RBD). Type of experiment: biochemical. Particulars: NRAS G12C FRET data IC50, NRAS G12C. A digest of the protocol:
as §2

Experiment [12] has as its target NRAS Q61K (Homo sapiens, UniProt P01111+P62937, Q61K). The experiment can be described thus: Ras-Raf disruption / FRET / MOA assay (BRAF RBD). Type of experiment: biochemical. A digest of the protocol:
as §2

For experiment [13], the target named is KRAS G12S (Homo sapiens, UniProt P01116+P62937, G12S). The experiment can be described thus: Ras-Raf disruption / FRET / MOA assay (BRAF RBD). Type of experiment: biochemical. Particulars: KRAS G12S FRET data IC50, Ras-Raf disruption, with Cyclophilin A. The essentials:
as §2

Experiment [14] concerns the target KRAS G12C (Homo sapiens, UniProt P01116+P62937, G12C). The experiment can be described thus: Ras-Raf disruption / FRET / MOA assay (BRAF RBD). Type of experiment: biochemical. Particulars: KRAS G12C FRET data IC50, Ras-Raf disruption, with Cyclophilin A. A digest of the protocol: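 His6-K-Ras G12C-GMPPNP (12.5 nM), GST-BRAF RBD (50 nM) and tagless Cyclophilin A (25 μM) incubated 3 h at 25 °C with compound (10-point 3-fold series from 30 μM), pH 7.3 HEPES buffer. Anti-His Eu/anti-GST APC added for 1.5 h; decreased TR-FRET ratio vs DMSO gives IC50.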

Experiment [15] deals with AsPC-1 (K-Ras G12D). Nature of the experiment: Potency assay: pERK. Type of experiment: cell-based. Particulars: Homo sapiens, ASPC1, read-out: pERK EC50.

KRAS G12S, sequence (P01116 1-169 isoform P01116-2 G12S limits assumed): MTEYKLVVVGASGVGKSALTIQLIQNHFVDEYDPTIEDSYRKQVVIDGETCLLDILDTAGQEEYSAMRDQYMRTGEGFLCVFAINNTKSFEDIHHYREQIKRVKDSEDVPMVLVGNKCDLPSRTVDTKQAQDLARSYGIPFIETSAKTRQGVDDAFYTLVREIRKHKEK
KRAS G12S, sequence (P62937 whole entry): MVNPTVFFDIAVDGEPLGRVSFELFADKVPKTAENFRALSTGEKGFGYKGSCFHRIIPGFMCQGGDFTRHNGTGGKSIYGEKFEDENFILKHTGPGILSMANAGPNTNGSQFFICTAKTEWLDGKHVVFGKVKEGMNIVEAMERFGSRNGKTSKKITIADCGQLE
KRAS G13C, sequence (P01116 1-169 isoform P01116-2 G13C limits assumed): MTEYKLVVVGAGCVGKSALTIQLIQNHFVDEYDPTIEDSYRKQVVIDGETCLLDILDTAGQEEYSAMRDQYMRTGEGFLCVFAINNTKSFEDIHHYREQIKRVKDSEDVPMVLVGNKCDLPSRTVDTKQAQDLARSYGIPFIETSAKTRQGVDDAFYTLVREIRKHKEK
KRAS G13C, sequence (P62937 whole entry): as the sequence (P62937 whole entry) above
NRAS Q61R, sequence (P01111 whole entry Q61R): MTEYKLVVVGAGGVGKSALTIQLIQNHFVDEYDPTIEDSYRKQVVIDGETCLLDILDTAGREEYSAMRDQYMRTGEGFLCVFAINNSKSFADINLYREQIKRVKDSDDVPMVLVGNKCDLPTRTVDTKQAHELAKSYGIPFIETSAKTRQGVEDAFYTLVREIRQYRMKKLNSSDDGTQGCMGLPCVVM
NRAS Q61R, sequence (P62937 whole entry): as the sequence (P62937 whole entry) above
KRAS G13D, sequence (P01116 1-169 isoform P01116-2 G13D limits assumed): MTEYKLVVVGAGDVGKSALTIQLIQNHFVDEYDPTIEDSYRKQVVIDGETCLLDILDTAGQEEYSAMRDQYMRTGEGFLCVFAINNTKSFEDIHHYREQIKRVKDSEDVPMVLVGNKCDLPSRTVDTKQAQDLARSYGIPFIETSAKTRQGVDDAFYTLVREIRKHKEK
KRAS G13D, sequence (P62937 whole entry): as the sequence (P62937 whole entry) above
KRAS WT, sequence (P01116 1-169 isoform P01116-2 limits assumed): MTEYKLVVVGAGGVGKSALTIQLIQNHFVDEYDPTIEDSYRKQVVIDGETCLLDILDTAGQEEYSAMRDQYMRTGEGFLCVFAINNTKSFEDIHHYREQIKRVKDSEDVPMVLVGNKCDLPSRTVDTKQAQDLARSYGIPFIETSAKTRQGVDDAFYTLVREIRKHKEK
KRAS WT, sequence (P62937 whole entry): as the sequence (P62937 whole entry) above
NRAS G12C, sequence (P01111 whole entry G12C): as the sequence (P01111 whole entry Q61R) above, with G12C, R61Q counted along it
NRAS G12C, sequence (P62937 whole entry): as the sequence (P62937 whole entry) above
KRAS G12V, sequence (P01116 1-169 isoform P01116-2 G12V limits assumed): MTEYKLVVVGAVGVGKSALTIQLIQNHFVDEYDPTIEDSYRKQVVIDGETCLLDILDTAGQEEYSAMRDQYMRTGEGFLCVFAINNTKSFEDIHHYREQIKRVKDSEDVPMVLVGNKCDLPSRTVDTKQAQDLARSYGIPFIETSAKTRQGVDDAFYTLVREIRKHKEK
KRAS G12V, sequence (P62937 whole entry): as the sequence (P62937 whole entry) above
NRAS WT, sequence (P01111 whole entry): as the sequence (P01111 whole entry Q61R) above, with R61Q counted along it
NRAS WT, sequence (P62937 whole entry): as the sequence (P62937 whole entry) above
KRAS G12D, sequence (P01116 1-169 isoform P01116-2 G12D limits assumed): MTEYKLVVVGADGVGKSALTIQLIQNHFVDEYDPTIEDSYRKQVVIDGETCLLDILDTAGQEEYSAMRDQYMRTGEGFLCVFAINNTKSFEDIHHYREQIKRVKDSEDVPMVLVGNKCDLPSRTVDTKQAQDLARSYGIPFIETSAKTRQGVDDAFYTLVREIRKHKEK
KRAS G12D, sequence (P62937 whole entry): as the sequence (P62937 whole entry) above
KRAS Q61H, sequence (P01116 1-169 isoform P01116-2 Q61H limits assumed): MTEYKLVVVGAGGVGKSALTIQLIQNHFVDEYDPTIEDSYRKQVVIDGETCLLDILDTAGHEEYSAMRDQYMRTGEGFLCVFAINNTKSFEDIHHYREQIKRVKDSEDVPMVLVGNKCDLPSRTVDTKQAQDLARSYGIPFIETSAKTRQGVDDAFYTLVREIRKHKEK
KRAS Q61H, sequence (P62937 whole entry): as the sequence (P62937 whole entry) above
KRAS G12C, sequence (P01116 1-169 isoform P01116-2 G12C limits assumed): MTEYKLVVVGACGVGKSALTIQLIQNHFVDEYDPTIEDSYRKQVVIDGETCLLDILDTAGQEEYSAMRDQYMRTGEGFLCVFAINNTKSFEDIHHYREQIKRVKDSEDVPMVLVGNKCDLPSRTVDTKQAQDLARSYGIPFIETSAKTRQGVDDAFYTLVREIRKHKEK
KRAS G12C, sequence (P62937 whole entry): as the sequence (P62937 whole entry) above
NRAS Q61K, sequence (P01111 whole entry Q61K): as the sequence (P01111 whole entry Q61R) above, with R61K counted along it
NRAS Q61K, sequence (P62937 whole entry): as the sequence (P62937 whole entry) above

As for `CCn1c(-c2cccnc2[C@H](C)OC)c2c3cc(ccc31)-c1cc(O)cc(c1)C[C@H](NC(=O)[C@H](C(C)C)N(C)C(=O)CN(C)C(=O)[C@@H]1N[C@@H]1C(C)C)C(=O)N1CCC[C@H](N1)C(=O)OCC(C)(C)C2` [Example 264], the IC50 is 100 to 1000 nM in experiment [1]; 10 to 100 nM in [2]; 10 to 100 nM in [3]; 10 to 100 nM in experiment [4]; 10 to 100 nM in [5]; under 10 nM in [6]. The IC50 is under 10 nM in [7]; 10 to 100 nM in [8]; under 10 nM in [9]; 10 to 100 nM in experiment [10]; under 10 nM in experiment [11]; 10 to 100 nM in experiment [12]. Further, the IC50 in experiment [13] and in [14] was under 10 nM throughout. In addition, the EC50 in experiment [15] is under 5000 nM.

Take `CCn1c(-c2cccnc2[C@H](C)OC)c2c3cc(ccc31)-c1cc(O)cc(c1)C[C@H](NC(=O)[C@H](C(C)C)N(C)C(=O)CN(C)C(=O)[C@H]1N[C@H]1C(C)C)C(=O)N1CCC[C@H](N1)C(=O)OCC(C)(C)C2` [Example 265]: the IC50 lay in the range of 100 to 1000 nM in experiment [1]; 10 to 100 nM in experiment [2]; 10 to 100 nM in [3]; 10 to 100 nM in experiment [4]; 100 to 1000 nM in experiment [5]; 10 to 100 nM in experiment [6]. Further, the IC50 in experiment [7] is 10 to 100 nM; in [8], 10 to 100 nM; in [9], 10 to 100 nM; in experiment [10] it was 10 to 100 nM; in experiment [11], 10 to 100 nM; in experiment [12] it was 100 to 1000 nM. Further, the IC50 in [13] and in experiment [14] was 10 to 100 nM each time. Also, the EC50 in experiment [15] is under 5000 nM.

Take `CCn1c(-c2cccnc2[C@H](C)OC)c2c3cc(ccc31)-c1cc(O)cc(c1)C[C@H](NC(=O)[C@H](C(C)C)N(C)C(=O)CN(C)C(=O)[C@H]1CN1CCCOC(C)=O)C(=O)N1CCC[C@H](N1)C(=O)OCC(C)(C)C2` (stereo partly drawn) [Example 266]: the IC50 in experiment [1] is 100 to 1000 nM; in [2], under 10 nM; in [3] it was 100 to 1000 nM; in experiment [4], 100 to 1000 nM; in experiment [5] it was 100 to 1000 nM; in [6], 10 to 100 nM. Moreover, the IC50 in experiment [7] was 100 to 1000 nM; in [8], 10 to 100 nM; in experiment [9], 100 to 1000 nM; in experiment [10], 100 to 1000 nM; in experiment [11], under 10 nM; in experiment [12], 100 to 1000 nM. Moreover, the IC50 in experiment [13] was 10 to 100 nM; in experiment [14] it was under 10 nM. In addition, the EC50 in [15] was under 5000 nM.

In the case of `CCn1c(-c2cccnc2[C@H](C)OC)c2c3cc(ccc31)-c1cc(O)cc(c1)C[C@H](NC(=O)[C@H](C(C)C)N(C)C(=O)CN(C)C(=O)[C@H]1CN1CC(=O)N(C)C)C(=O)N1CCC[C@H](N1)C(=O)OCC(C)(C)C2` (stereo partly drawn) [Example 270], the IC50 is 100 to 1000 nM in experiment [1]; 10 to 100 nM in experiment [2]; 100 to 1000 nM in experiment [3]; 100 to 1000 nM in experiment [4]; 1000 to 10000 nM in experiment [5]; 100 to 1000 nM in [6]. Also, the IC50 is 100 to 1000 nM in experiment [7]; 10 to 100 nM in experiment [8]; 100 to 1000 nM in experiment [9]; 100 to 1000 nM in experiment [10]; under 10 nM in experiment [11]; 1000 to 10000 nM in experiment [12]. For the same compound, the IC50 in experiment [13] was 10 to 100 nM; in [14], under 10 nM. The EC50 in experiment [15] is under 5000 nM.

(Values after US20230233569A1 (Revolution Medicines, Inc., priority 2020, published 2023).)
